# From patent US20230108906A1, “SUBSTITUTED BICYCLIC AND TRICYCLIC UREAS AND AMIDES, ANALOGUES THEREOF, AND METHODS USING SAME” (Arbutus Biopharma Corporation, priority 2019, published 2023)
# Tested on: HBV rcDNA in HepDE19 cells
# Experiment: HepDE19 assay with bDNA quantitation of HBV rcDNA
# Format: cell-based, hepatitis B virus (HBV)
# Conditions: Hepatitis B virus, HepDE19, 168 h, inhibition of rcDNA formation in HepDE19 cells (HepG2 derived), Tet-free medium, 7 day incubation, Quantigene 2.0 bDNA readout, top concentration 25 μM; read-out: DE-19bDNA EC50
# Method in brief: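 HepDE19 cells (HepG2-derived, Tet-regulated HBV) switched to Tet-free medium, then treated 7 days at 37 °C with compound, 8-point titration from 25 μM, 0.5% DMSO. rcDNA quantified by bDNA with HBV probes; EC50/EC90 via 4-parameter fit. Viability (CC50) by CellTiter-Glo ATP on 5,000 cells/well after 4 days.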
row,SMILES,EC50
1,"CN(C(=O)Nc1ccc(F)c(Cl)c1)C1CCCc2[nH]c(=O)c3cc(F)c(F)cc3c21 (racemic) [Compound 15, 3-(3-Chloro-4-fluorophenyl)-1-(8,9-difluoro-6-oxo-1,2,3,4,5,6-hexahydrophenanthridin-1-yl)-1-methylurea]",0.02 µM
2,"CN(C(=O)Nc1ccc(F)c(Cl)c1)[C@@H]1COCc2c1c1cc(F)c(F)cc1c(=O)n2CCO [Compound 254, (S)-3-(3-Chloro-4-fluorophenyl)-1-(8,9-difluoro-5-(2-hydroxyethyl)-6-oxo-1,4,5,6-tetrahydro-2H-pyrano[3,4-c]isoquinolin-1-yl)-1-methylurea]",0.058 µM
3,"Cc1cc(NC(=O)N(C)C2COCc3[nH]c(=O)c4ccc(F)cc4c32)ccc1F (stereo not drawn) [Compound 75, 3-(4-Fluoro-3-methylphenyl)-1-(9-fluoro-6-oxo-1,4,5,6-tetrahydro-2H-pyrano[3,4-c]isoquinolin-1-yl)-1-methylurea]",0.02 µM
4,"O=C(Nc1ccc(F)c(Cl)c1)N(CCCO)C1CCCCc2[nH]c(=O)c3ccccc3c21 (stereo not drawn) [Compound 22, 3-(3-Chloro-4-fluorophenyl)-1-(3-hydroxypropyl)-1-(5-oxo-6,7,8,9,10,11-hexahydro-5H-cyclohepta[c]isoquinolin-11-yl)urea]",0.6 µM
5,"CN(C(=O)Nc1ccc(F)c(Cl)c1)C1CCCc2[nH]c(=O)c3c(c21)CCOC3 (single isomer, unassigned) [Compound 60, 3-(3-Chloro-4-fluorophenyl)-1-methyl-1-(5-oxo-1,4,5,6,7,8,9,10-octahydro-2H-pyrano[3,4-c]quinolin-10-yl)urea]",3.2 µM
6,"CC(C)CN(C(=O)Nc1ccc(F)c(Cl)c1)C1CCCc2[nH]c(=O)c3cc(F)ccc3c21 (stereo not drawn) [Compound 10, 3-(3-Chloro-4-fluorophenyl)-1-(8-fluoro-6-oxo-1,2,3,4,5,6-hexahydrophenanthridin-1-yl)-1-isobutylurea]",0.06 µM
7,"CN(C(=O)Nc1ccc(F)c(Cl)c1)C1CCCc2[nH]c(=O)c3cc(F)ccc3c21 (stereo not drawn) [Compound 9, 3-(3-Chloro-4-fluorophenyl)-1-(8-fluoro-6-oxo-1,2,3,4,5,6-hexahydrophenanthridin-1-yl)-1-methylurea]",0.03 µM
8,"CN(C(=O)Nc1ccc(F)c(Cl)c1)C1COCc2[nH]c(=O)c3cc(Cl)ccc3c21 (stereo not drawn) [Compound 55, 3-(3-Chloro-4-fluorophenyl)-1-(8-chloro-6-oxo-1,4,5,6-tetrahydro-2H-pyrano[3,4-c]isoquinolin-1-yl)-1-methylurea]",0.05 µM
9,"CCN(C(=O)Nc1ccc(F)c(C#N)c1)C1COCc2[nH]c(=O)c3ccc(F)cc3c21 (stereo not drawn) [Compound 78, 3-(3-Cyano-4-fluorophenyl)-1-ethyl-1-(9-fluoro-6-oxo-1,4,5,6-tetrahydro-2H-pyrano[3,4-c]isoquinolin-1-yl)urea]",0.04 µM
10,"CCN(C(=O)Nc1ccc(F)c(C)c1)C1COCc2[nH]c(=O)c3ccc(F)cc3c21 (stereo not drawn) [Compound 76, 1-Ethyl-3-(4-fluoro-3-methylphenyl)-1-(9-fluoro-6-oxo-1,4,5,6-tetrahydro-2H-pyrano[3,4-c]isoquinolin-1-yl)urea]",0.01 µM
11,"CN(C(=O)Nc1ccc(F)c(C(F)F)c1)[C@@H]1COCc2[nH]c(=O)c3cc(F)c(F)cc3c21 (single isomer, unassigned) [Compound 126]",0.01 µM
12,CN(C(=O)Nc1ccc(F)c(Cl)c1)C1COCc2nc(NCCN)c3cc(F)c(F)cc3c21 (stereo not drawn) [Compound 240],0.59 µM
13,"O=C(Nc1ccc(F)c(Cl)c1)N[C@@H]1COCc2[nH]c(=O)c3cc(F)ccc3c21 (single isomer, unassigned) [Compound 67]",0.09 µM
14,"CN(C(=O)Nc1ccc(F)c(C(F)F)c1)[C@@H]1COCc2c1c1cc(F)c(F)cc1c(=O)n2CCN [Compound 253, (S)-1-(5-(2-Aminoethyl)-8,9-difluoro-6-oxo-1,4,5,6-tetrahydro-2H-pyrano[3,4-c]isoquinolin-1-yl)-3-(3-(difluoromethyl)-4-fluorophenyl)-1-methylurea]",0.91 µM
15,"CN(C(=O)Nc1ccc(F)c(Cl)c1)C1CCCc2[nH]c(=O)c3ccccc3c21 (racemic) [Compound 6, 3-(3-Chloro-4-fluorophenyl)-1-methyl-1-(6-oxo-1,2,3,4,5,6-hexahydrophenanthridin-1-yl)urea]",0.08 µM

# Same assay, conditions: Hepatitis B virus, HepDE19, 168 h, read-out: DE-19bDNA EC50 (uM), inhibition of rcDNA formation in HepDE19 cells (HepG2 derived), Tet-free medium, 7 day incubation, Quantigene 2.0 bDNA readout, top concentration 25 μM
row,SMILES,EC50
1,"[2H]C([2H])([2H])N(C(=O)Nc1ccc(F)c(Cl)c1)[C@]1([2H])COCc2[nH]c(=O)c3cc(F)c(F)cc3c21 (single isomer, unassigned) [Compound 146]",0.01 µM

# Same assay, conditions: inhibition of rcDNA formation in HepDE19 cells (HepG2 derived), Tet-free medium, 7 day incubation, Quantigene 2.0 bDNA readout, top concentration 25 μM; read-out: DE-19bDNA EC50
row,SMILES,EC50
1,"CC(C)CN(C(=O)Nc1ccc(F)c(C#N)c1)C1COCc2[nH]c(=O)c3cc(F)ccc3c21 (single isomer, unassigned) [Compound 116, 3-(3-Cyano-4-fluorophenyl)-1-(8-fluoro-6-oxo-1,4,5,6-tetrahydro-2H-pyrano[3,4-c]isoquinolin-1-yl)-1-isobutylurea]",0.23 µM
2,"CN(C(=O)Nc1cc(F)c(F)c(Cl)c1)C1COCc2[nH]c(=O)c3cc(F)ccc3c21 (single isomer, unassigned) [Compound 107, 3-(3-Chloro-4,5-difluorophenyl)-1-(8-fluoro-6-oxo-1,4,5,6-tetrahydro-2H-pyrano[3,4-c]isoquinolin-1-yl)-1-methylurea]",0.93 µM
3,"CN(C(=O)Nc1ccc(F)c(Cl)c1)C1COCc2[nH]c(=O)c3ccccc3c21 (single isomer, unassigned) [Compound 37, 3-(3-Chloro-4-fluorophenyl)-1-methyl-1-(6-oxo-1,4,5,6-tetrahydro-2H-pyrano[3,4-c]isoquinolin-1-yl)urea]",0.03 µM
4,"CNc1nc2c(c3cc(F)c(F)cc13)C(N(C)C(=O)Nc1ccc(F)c(Cl)c1)COC2 (single isomer, unassigned) [Compound 242, 3-(3-Chloro-4-fluorophenyl)-1-(8,9-difluoro-6-(methylamino)-1,4-dihydro-2H-pyrano[3,4-c]isoquinolin-1-yl)-1-methylurea]",0.02 µM
5,"CN(C(=O)Nc1ccc(F)c(Cl)c1)C1COCc2nc(NCCN)c3cc(F)c(F)cc3c21 (single isomer, unassigned) [Compound 250]",0.27 µM
6,"CC(=O)N1Cc2[nH]c(=O)c3cc(F)ccc3c2C(N(C)C(=O)Nc2ccc(F)c(C#N)c2)C1 (single isomer, unassigned) [Compound 165, 1-(3-Acetyl-8-fluoro-6-oxo-1,2,3,4,5,6-hexahydrobenzo[c][1,7]naphthyridin-1-yl)-3-(3-cyano-4-fluorophenyl)-1-methylurea]",≥ 25 µM
7,"CN(C(=O)Nc1ccc(F)c(Cl)c1)C1CNCc2[nH]c(=O)c3cc(F)ccc3c21 (single isomer, unassigned) [Compound 154, 3-(3-Chloro-4-fluorophenyl)-1-(8-fluoro-6-oxo-1,2,3,4,5,6-hexahydrobenzo[c][1,7]naphthyridin-1-yl)-1-methylurea]",0.03 µM
8,"CN(C(=O)Nc1ccc(F)c(C(F)F)c1)C1COCc2nc(NCCO)c3cc(F)c(F)cc3c21 (single isomer, unassigned) [Compound 238, 1-(8,9-Difluoro-6-((2-hydroxyethyl)amino)-1,4-dihydro-2H-pyrano[3,4-c]isoquinolin-1-yl)-3-(3-(difluoromethyl)-4-fluorophenyl)-1-methylurea]",0.02 µM
9,"CN(C(=O)N1Cc2ccccc2C1)C1CNCc2[nH]c(=O)c3cc(F)c(F)cc3c21 (single isomer, unassigned) [Compound 223, N-(8,9-Difluoro-6-oxo-1,2,3,4,5,6-hexahydrobenzo[c][1,7]naphthyridin-1-yl)-N-methylisoindoline-2-carboxamide]",2.3 µM
10,"CN(C(=O)Nc1ccc(F)c(Cl)c1)C1C[S+]([O-])Cc2[nH]c(=O)c3cc(F)c(F)cc3c21 (single isomer, unassigned) [Compound 208, 3-(3-Chioro-4-fluorophenyl)-1-(8,9-difluoro-3-oxido-6-oxo-1,4,5,6-tetrahydro-2H-thiopyrano[3,4-c]isoquinolin-1-yl)-1-methylurea]",8.5 µM
11,"CN(C(=O)Nc1ccc(F)c(Cl)c1)C1CCCc2[nH]c(=O)c3c(c21)CCCC3 (single isomer, unassigned) [Compound 47, 3-(3-Chloro-4-fluorophenyl)-1-methyl-1-(6-oxo-1,2,3,4,5,6,7,8,9,10-decahydrophenanthridin-1-yl)urea]",0.06 µM
12,"CN1Cc2[nH]c(=O)c3cc(F)ccc3c2C(N(C)C(=O)Nc2ccc(F)c(C#N)c2)C1 (single isomer, unassigned) [Compound 164, 3-(3-Cyano-4-fluorophenyl)-1-(8-fluoro-3-methyl-6-oxo-1,2,3,4,5,6-hexahydrobenzo[c][1,7]naphthyridin-1-yl)-1-methylurea]",1.3 µM
13,"CN(C(=O)Nc1ccc(F)c(Cl)c1)C1C[S+]([O-])Cc2[nH]c(=O)c3cc(F)c(F)cc3c21 (single isomer, unassigned) [Compound 209, 3-(3-Chloro-4-fluorophenyl)-1-(8,9-difluoro-3-oxido-6-oxo-1,4,5,6-tetrahydro-2H-thiopyrano[3,4-c]isoquinolin-1-yl)-1-methylurea]",0.7 µM

# Same assay, conditions: read-out: DE-19bDNA EC50; inhibition of rcDNA formation in HepDE19 cells (HepG2 derived), Tet-free medium, 7 day incubation, Quantigene 2.0 bDNA readout, top concentration 25 μM
row,SMILES,EC50
1,"CN(C(=O)Nc1ccccc1)C1COCc2[nH]c(=O)c3cc(F)c(F)cc3c21 (single isomer, unassigned) [Compound 102, 1-(8,9-Difluoro-6-oxo-1,4,5,6-tetrahydro-2H-pyrano[3,4-c]isoquinolin-1-yl)-1-methyl-3-phenylurea]",0.03 µM
